“Also recorded” adds a separate entry of the source. Where two headings read alike, the source gives them in different places.
Assays:
[1] = test system: C. elegans of the Bristol N2 strain; assay: Automated feeding assay (bead ingestion, pharyngeal pumping); format: in vivo, Caenorhabditis elegans; conditions: for Effect of 0.325 mM compound on serotonin-stimulated (0.325 mM) bead ingestion: 0.325 mM compound plus 0.325 mM serotonin; for Effect of 0.325 mM compound on bead ingestion: no added serotonin; for IC50: Caenorhabditis elegans
Source text: An automated screening assay has been developed and described in the present Applicants' co-pending International patent application No. PCT/AU00/01476 (WO 01/40500). Using the screening assay, twenty novel tropanyl ester compounds as well as tropanyl dichlorobenzoate were screened for nematicidal activity.
The assay used was essentially that described in WO 01/40500 with minor modifications. The protocol was as follows:
(1.) Plate Culture. C. elegans of the Bristol N2 strain (Brenner, 1974) were cultured at room temperature on HMS174 E. coli bacteria (Campbell et al., 1978) spread on a 150 mm diameter petri dish containing enhanced NGM 1.7% (w/v) (Avery and Horvitz, 1990) agar until a good population of adult nematodes was present, but food reserves had not been exhausted.
(2.) The nematodes were collected by washing each plate with 10 mL and then 5 mL of M9 buffer plate and filtering over a 20 μm nylon mesh (Nytal—Catalogue no. BCNY-HDO02-20) to retain adult nematodes. The nematodes from 7-8 of these 150 mm plates were collected together and placed on a 63 μm mesh filter (Nytal—product code PA-25-43) and washed with 200-250 mL of M9 buffer or MilliQ water. This procedure allows the passage of nematodes whilst retaining larger debris. Finally the nematodes were collected over a 20 μm mesh.
(3.) Adult nematodes were collected from the mesh using a pasteur pipette and allowed to settle in an eppendorf tube at 1×g for 10 minutes. This packed volume was used to calculate quantities of nematodes for experiments and assays, although nematodes were resuspended in 2-10 volumes of M9 buffer for transfer. Quantitative transfers of nematodes were performed using a Gilson Pipetman P200 or equivalent and a yellow tip with 5 mm cut off the sharp end.
(4.) Assays were performed in 24 well tissue-lture clusters (Nunc multidish). The final assay volume was 230 μL comprising the following sequential additions: • (i) M9 buffer—sufficient to bring the final volume to 230 μL • ([…]) Any other pharmacological agents—≦1.5 μL of drug in DMSO (or water) • (iv) Nematodes—150 μL of a 10% (v/v) stock in M9 • (v) Fluorescent beads—23 μL of a 1% w/v solution in M9.
Where serotonin or other pharmacological agents were omitted, the volume was adjusted with M9 buffer. Control experiments included 1.5 μL of DMSO except in the case of ondansetron, which was added from an aqueous stock.
The fluorescent beads were 1.30 μm uniformly dyed microsphere beads with a hydrophilic surface-coating. The fluorescence excitation maximum was 420 nm and the emission maximum was 485 nm (catalogue code FC04F, carboxylate-modified polystyrene/polyvinyl copolymer, manufactured and supplied by Bangs Laboratories, Inc. 9025 Technology Drive, Fishers, INDIANA 46038-2886, USA).
(5.) The nematodes were incubated for 60 minutes after the addition of the fluorescent beads at room temperature (≈21° C.) without shaking. The assay was terminated by the addition of 20 μL of 100 mM sodium azide.
(6.) Two aliquots of 100 μl each were transferred from each well of the 24 well cluster to a pair of wells in a pre-blocked mesh-bottomed plate (see below for details of the mesh-bottomed plate) and the buffer/bead suspension was immediately aspirated away through the filter mesh using a Millipore Multiscreen vacuum manifold.
(7.) A total of eight washing steps were performed. Each of the first five washes used 200 μL of 1%(w/v) sodium lauryl sulphate (SDS—Sigma) in M9 buffer. The third and fifth washes involved pipetting the solution up and down in the wells of the plate ten times each wash. The SDS washes were followed by three washes with 200 μL of M9 buffer only. At the end of each washing step, solutions were aspirated away through the mesh using a Millipore Multiscreen vacuum manifold. […]

nematode C. elegans = conditions: cited from earlier work
C. elegans = conditions: cited from earlier work
aphid Myzus persicae = conditions: in vivo; cited from earlier work
[2] = test system: larvae of the lepidopteran Helicoverpa armigera; conditions: in vivo; cited from earlier work
insects = conditions: in vivo; cited from earlier work
[3] = listed as tropanyl dichlorobenzoate

SMILES: CN1[C@@H]2CC[C@H]1CC(OC(=O)c1cc(Cl)cc(Cl)c1)C2 (stereo partly shown) [MDL 72222, 3,5-dichlorobenzoic acid tropan-3-yl ester]
- Effect of 0.325 mM compound on serotonin-stimulated (0.325 mM) bead ingestion [1]: reverses strongly
- Effect of 0.325 mM compound on serotonin-stimulated (0.325 mM) bead ingestion [1, 3]: strongly reversed
- Effect of 0.325 mM compound on bead ingestion [1]: inhibits
- Effect of 0.325 mM compound on bead ingestion [1, 3]: reduced
- IC50 ([1]; in the absence of added serotonin, estimated (FIG. 2), read-out: IC50 (dose that depressed the basal bead ingestion rate by 50%)): 11 µM
- IC50 ([1]; in the presence of 1 mM serotonin, estimated from log dose response curves (FIG. 2), read-out: IC50 (inhibitory concentration 50%) for bead ingestion): 40 µM
- Effect on pharyngeal pumping (nematode C. elegans; as summarised in the background, no concentration given): profoundly inhibited
- Effect on serotonin-stimulated rate of pharyngeal pumping (nematode C. elegans; drug 0.325 mM, serotonin 0.325 mM): antagonised the stimulatory effect
- Detrimental effects on C. elegans (C. elegans; in vivo, listed as tropanyl dichlorobenzoate): dose-dependent mortality and other detrimental effects; also recorded: dose-dependent detrimental effects, including lethality
- Lowest effective concentration in the chronic toxicity assay (C. elegans; reported previously in WO 01/61000): ~11 µM
- Detrimental effects on Myzus persicae (aphid Myzus persicae): dose-dependent detrimental effects, including lethality
- Effect on larval growth rates [2]: reduced growth rates
- Detrimental effects in insects (insects): significant detrimental effects, including some mortality

Source: patent US20050054680A1, “Agonists and antagonists of 5h3-like receptors of invertebrates as pesticides” (priority 2001, published 2005)
